Source: publication doi:10.1101/513044v1 (biorxiv, 2019)

What was measured:
[1] = test system: TaOR10 + TaORco; assay: two-electrode voltage clamp, Xenopus oocytes; type: cell-based, Toxorhynchites amboinensis; details: agonist; co-expressed with TaORco; -80 mV; 10^-10 to 10^-4 M
[2] = test system: TaOR2 + TaORco; assay: two-electrode voltage clamp, Xenopus oocytes; type: cell-based, Toxorhynchites amboinensis; details: agonist; co-expressed with TaORco; -80 mV; 10^-10 to 10^-4 M

Row | Compound | EC50 [1] [nM] | EC50 [2] [nM]
1 | Cc1c[nH]c2ccccc12 [skatole] | 87 | 1380
2 | c1ccc2[nH]ccc2c1 [indole] | 9160 | 88
